Here are results for one cell line from the supplement of paper PMC10307832.

What all share (assay): relative viability (nuclei count vs DMSO), 5 days (fraction); higher = more cells survive
Compound in experiment [1]: CC(C)=CC[C@@H](O)C1=CC(=O)c2c(O)ccc(O)c2C1=O [Shikonin] + CC1(C)CCC(c2ccc(Cl)cc2)=C(CN2CCN(c3ccc(C(=O)NS(=O)(=O)c4ccc(N[C@H](CCN5CCOCC5)CSc5ccccc5)c(S(=O)(=O)C(F)(F)F)c4)cc3)CC2)C1 [Navitoclax] (partner 0.5 µM)
The method in brief:
(§1)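 Lung cancer cell lines in 1536-well plates got either a single drug or a fixed anchor-drug dose together with five library-drug doses (not always all listed) in √10 steps, by pin tool, on the day after seeding. Nuclei were counted after 5 days, and relative viability is the treated-to-vehicle ratio of nuclei counts. Values are medians of duplicate plates.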

Compound in experiment [2]: CC(C)=CC[C@@H](O)C1=CC(=O)c2c(O)ccc(O)c2C1=O [Shikonin] + COc1cccc2cc(-c3nc([C@H]4CC[C@H](C(=O)O)CC4)n4ncnc(N)c34)[nH]c12 [OSI-027] (partner 0.5 µM)
The method in brief: as §1

Compound in experiment [3]: CC(C)N(CCCNC(=O)Nc1ccc(C(C)(C)C)cc1)C[C@H]1O[C@@H](n2ccc3c(N)ncnc32)[C@H](O)[C@@H]1O + CC(C)C[C@H](NC(=O)[C@H](Cc1ccccc1)NC(=O)c1cnccn1)B(O)O [Bortezomib] (partner 0.002 µM)
The method in brief: as §1

Compound in experiment [4]: CC(C)N(CCCNC(=O)Nc1ccc(C(C)(C)C)cc1)C[C@H]1O[C@@H](n2ccc3c(N)ncnc32)[C@H](O)[C@@H]1O + Cc1cc(Nc2cc(N3CCN(C)CC3)nc(Sc3ccc(NC(=O)C4CC4)cc3)n2)n[nH]1 [Tozasertib] (partner 0.1 µM)
The method in brief:
as §1

Take UMC-11: the relative viability in experiment [1] (first compound 0.01 µM) was 0.282; in experiment [1] (first compound 0.1 µM) it was 0.324; in experiment [1] (first compound 0.3162 µM) it was 0.31; in experiment [1] (first compound 1 µM), 0.318; in experiment [2] (first compound 0.01 µM), 0.469; in experiment [2] (first compound 0.1 µM), 0.532. In addition, the relative viability in experiment [2] (first compound 0.3162 µM) was 0.492; in experiment [2] (first compound 1 µM), 0.526; in experiment [3] (first compound 0.08 µM), 0.654; in experiment [3] (first compound 0.253 µM) it was 0.531; in experiment [3] (first compound 0.8 µM) it was 0.673; in experiment [3] (first compound 2.53 µM), 0.79. In addition, the relative viability was found to be 0.617 in experiment [3] (first compound 8 µM); 0.185 in experiment [4] (first compound 0.08 µM); 0.193 in experiment [4] (first compound 0.253 µM); 0.231 in experiment [4] (first compound 0.8 µM); 0.218 in experiment [4] (first compound 2.53 µM); 0.175 in experiment [4] (first compound 8 µM).
